Experimental data from US11466273B2, “Monocarboxylate transporter 4 (MCT4) antisense oligonucleotide (ASO) inhibitors for use as therapeutics in the treatment of cancer” (THE UNIVERSITY OF BRITISH COLUMBIA, priority 2015, dated 2022).
pIC50: −log10 of the molar value. Strand notation (5' to 3'): a small letter for the sugar, then the base; units joined by * are phosphorothioate-linked, units joined directly phosphodiester-linked; [ ] holds rarer units or linkages, { } end groups; capitals alone tell only the bases. d = 2'-deoxy (DNA)

Key:
MCT4 = experiment: Percent inhibition of MCT4 by MCT4 ASOs (knock-down after transfection, qPCR/Western blot); type: cell-based, human
Procedure: First-generation phosphorothioate-modified ASOs against human MCT4 were rationally designed by selecting sequences containing favourable motifs while excluding unfavourable ones (Matveeva et al., 2000). Specificity of MCT4-targeting sequences, compared to human and mouse genes (at least 3 of 20 bases mismatched), was evaluated using BLAST. Ten sequences SEQ ID No: 1, 4, 5, 9, 11, 30, 36, 37, 40 and 41 (see TABLE A) distributed throughout the length of the transcript with perfect complementarity to all human MCT4 transcript variants (NM_001042422.2, NM_001042423.2, NM_001206950.1, NM_001206951.1, NM_001206952.1, and NM_004207.3) were selected and synthesized by Eurofins MWG Operon. The knock-down efficiencies of these ten ASOs were tested by determining target mRNA and protein expression 48 hours after transfection of cells using qPCR and Western blotting. Two candidate ASOs (#1 and #14—SEQ ID NOs: 1 and 5, respectively) were selected for further studies. Sequences: ASO #1 (SEQ ID NO: 1), 5′-[…]-3′; ASO #14 (SEQ ID NO: 5), 5′-[…]-3′; a published non-targeting control ASO, 5′-[…]-3′ (Mullick et al., 2011; Samuel et al., 2006).
Cells were transfected in 6-well plates with ASOs at 100 nM for 48 hours (unless otherwise indicated) using Oligofectamine™ (Invitrogen™, Carlsbad, Calif.) or with MCT4-targeting siRNAs and controls (Dharmacon™, Chicago, Ill.) at 50 nM for 48 hours using Lipofectamine™ 2000 (Invitrogen™), following the manufacturer's instructions.
Total RNA was isolated using the RNeasy Mini Kit™ (Qiagen Inc.™, Hilden, Germany) and cDNA synthesized using the QuantiTect Reverse Transcription Kit™ (Qiagen™). Primers were designed using Primer-BLAST™. qRT-PCR reactions using KAPA SYBR Fast Universal™ (Kapa Biosystems™, Woburn, Mass.) were performed in triplicate in a ViiA 7 Real-Time PCR™ system (Applied Biosystems™, Foster City, Calif.). Target genes were normalized to a geometric average of 3 internal reference genes (Vandesompele et al., 2002).
Cells were harvested and lysed in RIPA buffer (50 mM Tris-Cl pH 7.4, 150 mM NaCl, 1% Igepal, 0.5% Na-deoxycholate, 0.1% SDS) supplemented with a complete protease inhibitor cocktail (Roche, Nutley, N.J.). The protein concentration of the lysate was determined by Pierce BCA Protein Assay™ (Thermo Scientific™, Waltham, Mass.). The lysate was run on 8% SDS polyacrylamide gel (20 ug of protein per lane) and proteins were transferred onto PVDF membrane (Millipore™, Billerica, Mass.). The blot was blocked with the Odyssey™ blocking buffer (Li-cor Biosciences™) and probed with anti-MCT4 antibody. Vinculin was used as a loading control. Following overnight incubation at 4° C., the primary antibody was probed with the corresponding secondary antibody and detected using the Odyssey Infrared Imaging System™ (Li-cor Biosciences™) and Image Studio Version 3.1™ (Li-cor Biosciences™). Densitometry analysis was done using ImageJ (U.S. National Institutes of Health, Bethesda, Md.).

PC3 cells = experiment: Combination screening, total live PC3 cell numbers; type: cell-based, human; settings: Homo sapiens, PC-3; approximate IC50 used for combination screening, 48 hours; read-out: IC50 Concentration
Source text: Human PC-3 and DU145 CRPC cells, human LNCaP prostate cancer cells, and mouse TRAMPC2 prostate cancer cells were purchased from the American Type Culture Collection (ATCC); C4-2 CRPC cells were from the Vancouver Prostate Centre, Vancouver, BC, Canada. Human monolayer cultures were maintained in RPMI-1640 (GE Healthcare Hyclone™, Logan, Utah) supplemented with 10% fetal bovine serum (FBS) (GE Healthcare Hyclone™, Logan, Utah) while TRAMPC2 cells were maintained in DMEM (GE Healthcare Hyclone™, Logan, Utah) supplemented with 5% FBS. For cell counting, cells were trypsinized to form a single cell suspension and counted using a TC20 Automated Cell Counter (Bio-Rad, Hercules, Calif.). Cell viability was assessed by trypan blue exclusion.
Various combination strategies were screened at the approximate IC50 concentrations to determine whether synergistic effects may be found by combining current cancer therapeutics (see TABLE D) with MCT4 ASO SEQ ID NO:5. In FIGS. 10 A-C, the total live PC3 cell numbers were assessed 48 hours after treatment with Metformin, Doxycycline and docetaxel both alone and in combination with MCT4 ASO SEQ ID NO:5.

[1] = Table A, ASOs transfected at 100 nM for 48 hours unless otherwise indicated
[2] = Table B, SEQ ID NO 1 and 16 mer truncations

| pIC50 (PC3 cells) | Molecule | % MCT4 Inhibition (MCT4; [1]) | % MCT4 Inhibition (MCT4; [2]) |
| --- | --- | --- | --- |
|  | 38 (dG*dG*dC*dC*dA*dC*dC*dG*dC*dC*dT*dC*dC*dA*dT*dC*dA*dG*dC*dA; antisense; listed as Homo sapiens) [compound 38] | 45.92% |  |
|  | 39 (dC*dC*dT*dG*dA*dG*dC*dC*dA*dG*dT*dC*dC*dA*dG*dT*dT*dT*dG*dT; antisense; listed as Homo sapiens) [compound 39] | 39.46% |  |
|  | 40 (dC*dC*dC*dA*dC*dC*dC*dA*dC*dC*dC*dT*dC*dC*dC*dA*dT*dT*dA*dA; antisense; listed as Homo sapiens) [compound 40] | -42.05% |  |
|  | 41 (dG*dC*dT*dT*dC*dT*dG*dT*dA*dC*dC*dT*dC*dC*dT*dC*dC*dC*dT*dG; antisense; listed as Homo sapiens) [compound 41] | 17.02% |  |
|  | 42 (dT*dG*dT*dC*dG*dC*dT*dG*dT*dA*dG*dC*dC*dG*dA*dT*dC*dC*dC; antisense; listed as Homo sapiens) [compound 42] | 21.20% |  |
|  | 43 (TTAAAGTCACGTTGTCTCG; listed as DNA, chemistry not fully specified; listed as Homo sapiens) [compound 43] | 0.27% |  |
|  | 44 (TTGCGGCTTGGCTTCACCG; listed as DNA, chemistry not fully specified; listed as Homo sapiens) [compound 44] | 31.16% |  |
|  | 45 (dC*dA*dC*dA*dG*dC*dT*dC*dC*dT*dC*dC*dC*dA*dT*dG*dG*dC*dC*dA*dG*dG; listed as Rattus norvegicus) [compound 45] | 22.4% |  |
|  | 46 (dA*dT*dG*dG*dC*dC*dA*dG*dG*dA*dG*dG*dG*dT*dT*dG; antisense; listed as Homo sapiens) [compound 46] | 76.03% | 76.03% |
|  | 47 (dC*dA*dT*dG*dG*dC*dC*dA*dG*dG*dA*dG*dG*dG*dT*dT; antisense; listed as Homo sapiens) [compound 47] | 81.21% | 81.21% |
|  | 48 (dC*dC*dA*dT*dG*dG*dC*dC*dA*dG*dG*dA*dG*dG*dG*dT; antisense; listed as Homo sapiens) [compound 48] | 77.65% | 77.65% |
|  | 49 (dC*dC*dC*dA*dT*dG*dG*dC*dC*dA*dG*dG*dA*dG*dG*dG; antisense; listed as Homo sapiens) [compound 49] | 65.76% | 65.76% |
|  | 50 (dT*dC*dC*dC*dA*dT*dG*dG*dC*dC*dA*dG*dG*dA*dG*dG; antisense; listed as Homo sapiens) [compound 50] | 30.52% | 30.52% |
|  | 51 (dC*dC*dT*dT*dC*dC*dC*dT*dG*dA*dA*dG*dG*dT*dT*dC*dC*dT*dC*dC; antisense) [compound 51] | 0.00% |  |
| 8.60 | CC(=O)O[C@@]12CO[C@@H]1C[C@H](O)[C@@]1(C)C(=O)[C@H](O)C3=C(C)[C@@H](OC(=O)[C@H](O)[C@@H](NC(=O)OC(C)(C)C)c4ccccc4)C[C@@](O)([C@@H](OC(=O)c4ccccc4)[C@H]21)C3(C)C [Docetaxel] |  |  |
| 4.82 | C[C@H]1c2cccc(O)c2C(=O)C2=C(O)[C@]3(O)C(=O)C(C(N)=O)=C(O)[C@@H](N(C)C)[C@@H]3[C@@H](O)[C@@H]21 [Doxycycline] |  |  |
| 2.40 | CN(C)C(=N)N=C(N)N [Metformin] |  |  |
